Results as given in ChEMBL document CHEMBL1201862, “PubChem BioAssay data set” (2004).
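Cells were grown in 96-well plates and exposed to each compound for 48 hours at five concentrations; endpoints were interpolated linearly between bracketing concentrations, or set to the highest concentration if not reached. The concentration for 50% growth inhibition is given as GI50.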 Active and inactive are the calls of the source. No stated cut-off is given here; in the data, active = GI50 up to about 1.1 µM and inactive = higher.

Legend:
Test in all cases: NCI tumour cell line growth inhibition, 48 h
ACHN = system: ACHN
CCRF-CEM = system: CCRF-CEM
EKVX = system: EKVX
HCC 2998 = system: HCC 2998
HOP-62 = system: HOP-62
IGROV-1 = system: IGROV-1
K562 = system: K562
KM12 = system: KM12
LOX IMVI = system: LOX IMVI
MCF7 = system: MCF7
MDA-MB-231 = system: MDA-MB-231
Malme-3M = system: Malme-3M
NCI-H226 = system: NCI-H226
NCI-H23 = system: NCI-H23
OVCAR-5 = system: OVCAR-5
SF-295 = system: SF-295
SK-MEL-28 = system: SK-MEL-28
SK-MEL-5 = system: SK-MEL-5
SN12C = system: SN12C
SR = system: SR

Compound	GI50 (ACHN)	GI50 (CCRF-CEM)	GI50 (EKVX)	GI50 (HCC 2998)	GI50 (HOP-62)	GI50 (IGROV-1)	GI50 (K562)	GI50 (KM12)	GI50 (LOX IMVI)	GI50 (MCF7)	GI50 (MDA-MB-231)	GI50 (Malme-3M)	GI50 (NCI-H226)	GI50 (NCI-H23)	GI50 (OVCAR-5)	GI50 (SF-295)	GI50 (SK-MEL-28)	GI50 (SK-MEL-5)	GI50 (SN12C)	GI50 (SR)
CN(C)CCCNc1c2c(nc3ccc(Cl)cc13)CCCC2	16.1 µM (inactive)	3.93 µM (inactive)	14.9 µM (inactive)	5.27 µM (inactive)	12.9 µM (inactive)	12.7 µM (inactive)	0.492 µM (active)	13.6 µM (inactive)	11.9 µM (inactive)	12.1 µM (inactive)	13.6 µM (inactive)	15.6 µM (inactive)	22.3 µM (inactive)	15.8 µM (inactive)	20 µM (inactive)	14.5 µM (inactive)	18.3 µM (inactive)	14.4 µM (inactive)	11.8 µM (inactive)	2.55 µM (inactive)
COC(=O)C(Cc1ccccc1)NC(=O)c1ccc(CNC(=S)NCc2cccc(CNC(=S)NCc3ccccc3)c2)cc1 (stereo not given)	> 34.5 µM (inactive)	> 34 µM (inactive)	> 32.2 µM (inactive)	> 35 µM (inactive)	28.9 µM (inactive)	> 31.7 µM (inactive)	> 32.8 µM (inactive)	> 29 µM (inactive)	> 35.6 µM (inactive)	> 32.8 µM (inactive)	> 34 µM (inactive)	> 34.9 µM (inactive)	> 34.1 µM (inactive)	> 35.4 µM (inactive)	> 34.3 µM (inactive)	> 33.4 µM (inactive)	> 34 µM (inactive)	> 32.6 µM (inactive)	> 31.8 µM (inactive)	> 34.6 µM (inactive)
CC(=O)OCc1cc2ccccc2nc1C(Br)(Br)Br	13.2 µM (inactive)	10.9 µM (inactive)	19.1 µM (inactive)	15.4 µM (inactive)	26.1 µM (inactive)	12 µM (inactive)	18 µM (inactive)	13 µM (inactive)	11.1 µM (inactive)	14.7 µM (inactive)	19.3 µM (inactive)	0.603 µM (active)	21.5 µM (inactive)	13.6 µM (inactive)	15.4 µM (inactive)	16.4 µM (inactive)	17.9 µM (inactive)	11.1 µM (inactive)	13.2 µM (inactive)	1.46 µM (inactive)
COC(=O)C1(Cc2ccccc2C)Cc2ccc(C)cc2C1=O (stereo not given)	34.9 µM (inactive)	48 µM (inactive)	41.4 µM (inactive)	48 µM (inactive)	56.4 µM (inactive)	70.5 µM (inactive)	42.2 µM (inactive)	31.2 µM (inactive)	19.7 µM (inactive)	20 µM (inactive)	42.2 µM (inactive)	23.2 µM (inactive)	34.2 µM (inactive)	26.4 µM (inactive)	89.7 µM (inactive)	34.4 µM (inactive)	79.8 µM (inactive)	16.9 µM (inactive)	21.6 µM (inactive)	13.9 µM (inactive)
CCOC(=O)C(NCc1cccc(C(F)(F)F)c1)(NC(=O)c1ccccc1)C(F)(F)F (stereo not given)	25.9 µM (inactive)	> 100 µM (inactive)	24.2 µM (inactive)	26.1 µM (inactive)	37.9 µM (inactive)	23.7 µM (inactive)	26.7 µM (inactive)	28.1 µM (inactive)	19.9 µM (inactive)	43.3 µM (inactive)	11.5 µM (inactive)	21.7 µM (inactive)	27.2 µM (inactive)	21.8 µM (inactive)	71.1 µM (inactive)	44.1 µM (inactive)	22.1 µM (inactive)	30.5 µM (inactive)	31.2 µM (inactive)	> 100 µM (inactive)
S=C1c2cc(Cl)ccc2N=C(NC2CCCC2)C2CSCN12 (stereo not given)	> 100 µM (inactive)	> 69.5 µM (inactive)	> 91 µM (inactive)	> 100 µM (inactive)	> 100 µM (inactive)	> 100 µM (inactive)	> 68.7 µM (inactive)	> 41.4 µM (inactive)	> 100 µM (inactive)	> 71.4 µM (inactive)	> 100 µM (inactive)	> 100 µM (inactive)	> 100 µM (inactive)	62.5 µM (inactive)	> 100 µM (inactive)	> 75.9 µM (inactive)	> 100 µM (inactive)	> 100 µM (inactive)	> 100 µM (inactive)	> 60.1 µM (inactive)
[N-]=[N+]=NC1C(O)C(CO)OC1n1ccc(N)nc1=O (stereo not given)	33.9 µM (inactive)	0.444 µM (active)	429 µM (inactive)	46.7 µM (inactive)	104 µM (inactive)	310 µM (inactive)	294 µM (inactive)	187 µM (inactive)	232 µM (inactive)	24 µM (inactive)	195 µM (inactive)	93.8 µM (inactive)	> 625 µM (inactive)	29.9 µM (inactive)	245 µM (inactive)	530 µM (inactive)	416 µM (inactive)	> 625 µM (inactive)	227 µM (inactive)	28.5 µM (inactive)
C=CCN1C(=O)/C(=C/c2cccs2)N=C1SC/C=C/C	35.5 µM (inactive)	34.8 µM (inactive)	33.6 µM (inactive)	48.3 µM (inactive)	> 100 µM (inactive)	63.8 µM (inactive)	32.5 µM (inactive)	31.3 µM (inactive)	36.1 µM (inactive)	26.4 µM (inactive)	68.1 µM (inactive)	34 µM (inactive)	> 100 µM (inactive)	44.7 µM (inactive)	65.6 µM (inactive)	40.4 µM (inactive)	54.1 µM (inactive)	19.1 µM (inactive)	26.3 µM (inactive)	18.5 µM (inactive)
COc1cc(OC)c(/C=C\c2ccnc3ccccc23)c(OC)c1	4.41 µM (inactive)	1.7 µM (inactive)	4.65 µM (inactive)	9.31 µM (inactive)	5.19 µM (inactive)	1.45 µM (inactive)	0.433 µM (active)	0.736 µM (active)	2.73 µM (inactive)	0.569 µM (active)	3.05 µM (inactive)	1.34 µM (inactive)	4.11 µM (inactive)	5.61 µM (inactive)	6.05 µM (inactive)	2.53 µM (inactive)	5.37 µM (inactive)	1.7 µM (inactive)	4.71 µM (inactive)	0.689 µM (active)
C=C1C(=O)O[C@@H]2C[C@@H](C)[C@@H]3[C@@H](OC4OC(COC(C)=O)C(O)C(O)C4O)CC(=O)[C@@]3(C)C[C@H]12 (stereo not given in full)	0.508 µM (active)	0.238 µM (active)	1.87 µM (inactive)	1.75 µM (inactive)	17.3 µM (inactive)	2.17 µM (inactive)	0.596 µM (active)	11 µM (inactive)	0.63 µM (active)	0.728 µM (active)	4.36 µM (inactive)	0.283 µM (active)	11 µM (inactive)	12.5 µM (inactive)	3.54 µM (inactive)	17.3 µM (inactive)	2.15 µM (inactive)	1.74 µM (inactive)	1.54 µM (inactive)	1.6 µM (inactive)
C=CCc1cc(-c2cc(CC=C)c(O)c(CN(CCCl)CCCl)c2)cc(CN(CCCl)CCCl)c1O	7.69 µM (inactive)	3.03 µM (inactive)	16 µM (inactive)	15.6 µM (inactive)	14 µM (inactive)	16.2 µM (inactive)	32.8 µM (inactive)	18.2 µM (inactive)	10.3 µM (inactive)	5.77 µM (inactive)	18.6 µM (inactive)	18.7 µM (inactive)	15.6 µM (inactive)	6.89 µM (inactive)	18.3 µM (inactive)	13 µM (inactive)	17.8 µM (inactive)	16.8 µM (inactive)	9.68 µM (inactive)	0.627 µM (active)
C[C@H]1[C@H]2[C@H](C[C@@]3(C)C4=CC[C@H]5C(C)(C)[C@@H](OC6OCC(O)C(O)C6O)CC[C@@]56C[C@@]46CC[C@]23C)O[C@@]2(O)[C@@H]1OC(C)(C)[C@H]2O (stereo not given in full)	2.12 µM (inactive)	0.791 µM (active)	1.12 µM (inactive)	0.681 µM (active)	1.78 µM (inactive)	0.918 µM (active)	2.39 µM (inactive)	1.48 µM (inactive)	1.48 µM (inactive)	0.867 µM (active)	1.81 µM (inactive)	0.993 µM (active)	2.44 µM (inactive)	1.09 µM (active)	4.75 µM (inactive)	0.429 µM (active)	2.48 µM (inactive)	1.66 µM (inactive)	1.06 µM (active)	1.54 µM (inactive)
CC(OP(=O)(O)O)C(N)C(=O)O (stereo not given)	> 100 µM (inactive)	> 100 µM (inactive)	> 100 µM (inactive)	> 100 µM (inactive)	> 100 µM (inactive)	> 100 µM (inactive)	> 100 µM (inactive)	> 100 µM (inactive)	> 100 µM (inactive)	> 100 µM (inactive)	> 100 µM (inactive)	> 100 µM (inactive)	> 100 µM (inactive)	> 100 µM (inactive)	> 100 µM (inactive)	> 100 µM (inactive)	> 100 µM (inactive)	> 100 µM (inactive)	> 100 µM (inactive)	> 100 µM (inactive)
COc1ccc2c(c1)/C(=C\c1c(Cl)[nH]c3cc(C)c(OC)cc13)C(=O)N2	1.05 µM (active)	0.726 µM (active)	2.1 µM (inactive)	1.64 µM (inactive)	4.44 µM (inactive)	0.467 µM (active)	0.522 µM (active)	0.467 µM (active)	0.753 µM (active)	0.41 µM (active)	2.93 µM (inactive)	1.28 µM (inactive)	6.04 µM (inactive)	0.593 µM (active)	2.55 µM (inactive)	0.396 µM (active)	10.6 µM (inactive)	0.69 µM (active)	2.09 µM (inactive)	0.357 µM (active)
